The test system of experiment [1] is C8161 human melanoma cells. The experiment in a line: Cell cycle analysis (propidium iodide flow cytometry). Conditions: for Sub G1: 8 Gy, 25 uM riluzole, average of 3 experiments. The format is cell-based. On the procedure:
Cell pellets were fixed by drop-wise addition of ice-cold 70% ethanol and incubated overnight at 4° C. Fixed cells were washed twice with ice-cold PBS and resuspended in […] PBS. […] The experiment was repeated 3 times.

The next experiment concerns U118MG cell line. The experiment in a line: Western immunoblot for cleaved PARP. The format is cell-based. As to conditions: experiments repeated as for U87MG.
The subject of another experiment is glioma cells. Nature of the experiment: γ-H2AX Western blot and γ-H2AX/53BP1 immunofluorescence. The format is cell-based.
Another experiment concerns U87MG cells. The experiment in a line: ROS measurement by flow cytometry (2′,7′-dichlorodihydrofluorescein diacetate). Format: cell-based. Conditions: 10 uM riluzole for various time periods versus vehicle. On the procedure:
(§1) The cells were incubated with 2′,7′-dichlorodihydrofluorescein diacetate (Sigma) for 20 min at 37 deg.

Another experiment deals with LN229 cells. Described as above. Format: cell-based. As to conditions: 10 uM riluzole for various time periods versus vehicle. How it is done:
as §1

The subject of a further experiment is LN229 cell line. Nature of the experiment: Western immunoblot for cleaved PARP. The format is cell-based. Conditions: experiments repeated as for U87MG.
Experiment [2] relates to C8161 xenografts. On the procedure: Immunodeficient nude mice were purchased from Taconic. C8161 cells were injected into flanks bilaterally at 10^6 cells per site.
In experiment [3] the test system is C8161 hGRM1-positive human melanoma cells. Conditions: riluzole plus irradiation (2 or 4 Gy) compared with irradiation alone.
Description: Both sets of cells were irradiated at 2 or 4 Gy. Lysates were made at 24, 48, or 72 hours after irradiation. Protein lysates were prepared by washing cells with PBS, adding extraction buffer [50 mmol/L Tris, 150 mmol/L NaCl, 1 mmol/L EDTA (pH 8.0)], 1% NP40, 5% glycerol, 1 mmol/L Dithiothreitol, complete protease inhibitor cocktail (Roche), and phosphatase inhibitors I and II (Sigma). The samples were resolved in 10% gels (Bio-Rad), after which they were transferred onto nitrocellulose membranes. Membranes were blocked with 5% milk and 1% bovine serum albumin and then probed with antibodies against PARP and cleaved caspase-3. The same blot was probed with alpha-tubulin to show equal loading.
Cells were either treated with IR at 2 Gy (2) or 4 GY (4) or not treated (0). Lysates were made immediately after IR or at 24 hours after IR and probed with anti-PARP and anticleaved PARP antibodies to assess apoptotic cells. The same blot was probed with a-tubulin to show equal loading.
Experiment [4] deals with hGRM1-positive UACC903 human melanoma cells. Conditions: riluzole for 24 hours, then ionizing radiation; PE=19%. On the procedure: (§2) hGRM1-expressing C8161 [wild type (wt) for RAS and BRAF] and UACC903 (wt for RAS, mutated B-RAF, V600E) human melanoma cell line and hGRM1-negative melanoma cell line UACC930 (wt for RAS, mutated B-RAF, V600E), were obtained from Dr. Mary J. C. Hendrix (Children's Memorial Research Center, Chicago, IL) and Dr. Jeffrey M. Trent (Translational Genomics Research Center, Phoenix, AZ), respectively. Cells were cultured in monolayer at 37° C. in a 5% CO2 humidified incubator, in RPMI (InVitrogen) supplemented with 10% fetal bovine serum (Sigma).
(§3) Cells were trypsinized for retrieval and plated on 100-mm plates and allowed to attach overnight for 20 hours. […] Cells were irradiated by a Gamma Cell 40 Exactor (MDS Nordion) irradiator and then incubated overnight (20 hours). Drug was aspirated and culture media replaced at 20 hours. Plates were then monitored for 10 to 21 days and stained with crystal violet for visual counting. Colonies which contained more than 50 cells were scored as clonogenic survivors.
(§4) All clonogenic assays and cell cycle analyses experiments were repeated 3 times and the triplicate results are shown.

Experiment [5] concerns hGRM1-positive C8161 human melanoma cells. Conditions: riluzole for 24 hours, then ionizing radiation; PE=12%. On the procedure: as §2, §3, §4
A further experiment concerns D3-vec cells. Nature of the experiment: Immunofluorescence for 53BP1 and γ-H2AX foci in apoptosis-deficient cells. The format is cell-based, mouse. As to conditions: empty vector controls; treated for various time points up to 24 hours. The source says:
(§5) These treated cells were stained with γ-H2AX and 53BP1, both known to localize at sites of DNA double stranded breaks.

The subject of the next experiment is D3-mGRM1 cells. The experiment is described as above. Format: cell-based, mouse. Conditions: treated for various time points up to 24 hours.
Text: as §5

For another experiment, the system named is U87MG glioma cells. Nature of the experiment: Western immunoblot for cleaved PARP. Format: cell-based. As to conditions: riluzole 10, 25 or 50 μM for 4 days versus NT or vehicle.
The test system of experiment [6] is C8161 xenografts. The experiment in a line: Murine xenograft model, cleaved caspase-3 immunohistochemistry. The format is in vivo, nude mice. On the procedure:
hGRM-positive C8161 cells (1×10^6) were injected into the flanks of 6-week-old nude mice (Taconic). […] At 24, 48, and 72 hours after the second dose of irradiation, mice in each group were sacrificed and tumor samples were removed. Half of the samples were snap-frozen for further molecular studies, and the other half was fixed in formalin for histologic analysis. The antibody to activated caspase-3 was utilized to visualize apoptotic cells. The average number of apoptotic cells per tumor was calculated by counting the apoptotic cells in 10 random highpowered fields.
Cleaved caspase-3 immunohistochemistry. Immunodeficient nude mice were purchased from Taconic. C8161 cells were injected into flanks bilaterally at 10^6 cells per site. Tumor size was measured with a vernier caliper. When tumor volumes reached 6 to 10 mm^3 the mice were randomly grouped into various treatments. Each treatment group consisted of 10 mice. […] At 24, 48, and 72 hours after the second dose of irradiation, mice in each group were sacrificed and tumor samples were removed. Half of the samples were snap-frozen for further molecular studies, and the other half was fixed in formalin for histologic analysis. The antibody to activated caspase-3 was utilized to visualize apoptotic cells.

The structures appear in SMILES notation.

For `C=C1C[C@@H]2COC(=O)[C@]2(Cc2ccc3ccccc3c2)C1` [BAY 36-7620], the G2/M synchronization result in [1] (treatment of C8161 cells with the compound) is “no G2/M synchronization”.
As for `Nc1nc2ccc(OC(F)(F)F)cc2s1` [Riluzole, riluzole], the “levels of cleaved PARP” value with U118MG cell line was “identical results”; in the experiment on LN229 cell line it was “identical results”; in experiment [3], “further augmented levels of cleaved PARP”; with U87MG glioma cells it was “higher levels of cleaved PARP”. Moreover, the “co-localization of γ-H2AX and 53BP1 (immunofluorescence)” value in the experiment on glioma cells is “Co-localization was demonstrated”. Also, the “γ-H2AX Western blot (DNA damage)” value with glioma cells (cell lysates) is on record as “caused DNA damage”. For the same compound, the “ROS (oxidation of fluorochrome fluorescence)” value with U87MG cells and in the experiment with LN229 cells was “enhanced ROS” in each case. Further, in the experiment with C8161 xenografts [2] (riluzole (10 mg/kg) plus IR, 25 days of treatment), the “effect of the combination on growth of xenografts” value was “at least an additive effect”. Further, the “DNA damage as measured by foci of gH2AX on immunohistochemistry” value with C8161 xenografts [2] (xenograft harvests, riluzole plus irradiation) was “markedly enhanced DNA damage”. Also, the “dose-modifying factor (DMF)” value came to 1.30 in experiment [4] and 1.48 in experiment [5]. Besides, the “53BP1 and γ-H2AX foci (DNA double stranded breaks)” value in the experiment with D3-vec cells was “not vector controls”; in the experiment on D3-mGRM1 cells it was “induction of clear nuclear 53BP1 and γ-H2AX foci”. In addition, the “Sub G1” value in [1] (Radiation followed by Riluzole) is given as 24.91; in experiment [1] (Riluzole followed by Radiation) it was 3.59. Also, the G2/M fraction entry in experiment [1] (cells treated with riluzole prior to irradiation) is reported as “clear spike in the G2/M fraction”; in [1] (reverse sequence (irradiation before riluzole)) it was “no such effect”. Besides, the “number of apoptotic tumor cells (immunohistochemistry)” value in the experiment on C8161 xenografts [6] (riluzole 10 mg/kg oral gavage plus 2 x 4 Gy irradiation versus irradiation alone or control groups, P<0.001) is on record as “significant increase”; with C8161 xenografts [6] (riluzole plus irradiation versus riluzole alone, 24- and 48-hour time points, P<0.01) it was “significant difference”.

These data come from patent US12318449B2 (Rutgers, The State University of New Jersey, priority 2012, dated 2025).
